In data set [1] the test system is GP2D cells. Description: Cell proliferation assay (CellTiter-Glo), K-Ras G12D cells. Conditions: bins given, read-out: Inhibition of GP2D Cells (IC50). Type of data set: cell-based. Here is the method:
ASPC-1 (ATCC CRL-1682), Panc-10.05 (ATCC CRL-2547), A427, and GP2D (Sigma 95090714) cell lines comprise a G12D mutation and can be used to assess Ras cellular signaling in vitro, e.g., in response to the compounds herein. […] ASPC-1 culture medium is prepared with RPMI-1640 and 10% heat-inactivated FBS. Panc-10.05 culture medium is prepared with RPMI-1640, 10 Units/ml human recombinant insulin, and 10% FBS. A427 cell culture is prepared with RPMI-1640 and 10% heat-inactivated FBS. GP2D culture medium is prepared with DMEM with 2 mM glutamine and 10% heat-inactivated FBS. A CellTiter-Glo (CTG) luminescent based assay (Promega) is used to assess growth of the cells, as a measurement of the ability of the compounds herein to inhibit Ras signaling in the cells. The cells (e.g., 800 per well) are seeded in their respective culture medium in standard tissue culture-treated 384-well format plates (Falcon #08-772-116) or ultra-low attachment surface 384-well format plates (S-Bio #MS-9384UZ). The day after plating, cells are treated with a dilution series (e.g., a 9 point 3-fold dilution series) of the compounds herein (e.g., approximately 40 μl final volume per well). Cell viability can be monitored (e.g., approximately 5 days later) according to the manufacturer's recommended instructions, where the CellTiter-Glo reagent is added (e.g., approximately 10 μl), vigorously mixed, covered, and placed on a plate shaker (e.g., approximately for 20 min) to ensure sufficient cell lysis prior to assessment of luminescent signal. The IC50 values are determined using the four parameter fit. The resulting IC50 value is a measurement of the ability of the compounds herein to reduce cell growth of Ras-driven cells (e.g., tumor cell lines) in vitro and/or in vivo.
On the technique in general: In ATP-based viability assays light output follows the ATP content of the culture.

Data set [2] in a line: in vitro. The conditions noted are these: microsomes, pH 7.4.
In data set [3] the test system is A549 cells. Briefly: Cell proliferation assay (CellTiter-Glo), K-Ras G12S cells. The data set is classed as cell-based. Conditions: Homo sapiens, A549; ≤500 nM; read-out: Inhibition of A549 Cells (IC50). The procedure:
(§1) A549 (ATCC CRL-185) and LS123 (ATCC CRL-255) cell lines comprise a G12S mutation and can be used to assess Ras cellular signaling in vitro, e.g., in response to the compounds herein. A549 culture medium is prepared with RPMI-1640 and 10% heat-inactivated FBS. LS123 culture medium is prepared with RPMI-1640 and 10% heat-inactivated FBS. A CellTiter-Glo (CTG) luminescent based assay (Promega) is used to assess growth of the cells, as a measurement of the ability of the compounds herein to inhibit Ras signaling in the cells. The cells (e.g., 800 per well) are seeded in their respective culture medium in standard tissue culture-treated 384-well format plates (Falcon #08-772-116) or ultra-low attachment surface 384-well format plates (S-Bio #MS-9384WZ). The day after plating, cells are treated with a dilution series (e.g., a 10 point 3-fold dilution series) of the compounds herein (e.g., approximately 40 μl final volume per well). Cell viability can be monitored (e.g., approximately 6 days later) according to the manufacturer's recommended instructions, where the CellTiter-Glo reagent is added (e.g., approximately 10 μl), vigorously mixed, covered, and placed on a plate shaker (e.g., approximately for 20 min) to ensure sufficient cell lysis prior to assessment of luminescent signal. The IC50 values are determined using the four parameter fit. The resulting IC50 value is a measurement of the ability of the compounds herein to reduce cell growth of Ras-driven cells (e.g., tumor cell lines) in vitro and/or in vivo.

The target in data set [4] is T1, KRAS G12D 1-169 (His-tagged, GDP-loaded) (Homo sapiens, UniProt P01116, G12D).
T1 construct: His -tagged GDP-loaded G12D 1-169; made in house; host or cells: E. coli, e.g. BL21 (DE3)
Briefly: Covalent modification of KRAS protein by intact-protein LC-MS. Type of data set: binding. Conditions: comparable or same conditions as K-Ras G12S. In outline:
(§2)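 Percent modification is derived from deconvoluted intact-protein LC-ESI-MS peak intensities of adducted versus unmodified KRAS. GDP-loaded His-tagged KRAS 1-169 (~2 μM, HEPES buffer at physiological conditions) was exposed to compound for 24 hrs at room temperature, then quenched with formic acid before C4 reversed-phase separation.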

Data set [5] has as its system LS123 cells. Description: Cell proliferation assay (CellTiter-Glo), K-Ras G12S cells. Type of data set: cell-based. The conditions noted are these: Comparative Compound A lacking the warhead vs Compound B. Here is the method:
as §1

Data set [6] concerns the target T2, K-Ras G12S (Homo sapiens, UniProt P01116, G12S).
T2 construct: made in house; host or cells: E. coli, e.g. BL21 (DE3)
Description: HTRF assay, K-Ras G12S / SOS1 interaction. Type of data set: biochemical. Conditions: IC50 against K-Ras G12D divided by IC50 against K-Ras G12S. The text has this: This assay can be also used to assess a selective inhibition or reduction of signaling output of a mutant Ras protein relative to a wildtype, or relative to a different mutant Ras protein. For example, the equilibrium interaction of wildtype Kras or K-Ras mutant (e.g., wildtype or a mutant thereof including those mentioned in Example 6) with SOS1 (e.g., hSOS1) can be assessed as a proxy or an indication for a subject compound's ability to bind and inhibit Ras protein. HTRF assay detects from (i) a fluorescence resonance energy transfer (FRET) donor (e.g., antiGST-Europium) that is bound to GST-tagged K-Ras mutant to (ii) a FRET acceptor (e.g., anti-6His -XL665) bound to a His -tagged hSOS1.
The assay buffer can contain ˜5 mM HEPES pH 7.4, ˜150 mM NaCl, ˜1 mM DTT, 0.05% BSA and 0.0025% (v/v) Igepal. A Ras working solution is prepared in an assay buffer containing typically a suitable amount of the protein construct (e.g., GST-tagged K-Ras mutant) and the FRET donor (e.g., antiGST-Eu(K) from Cisbio, France). A SOS1 working solution is prepared in an assay buffer containing suitable amount of the protein construct (e.g., His -hSOS1) and the FRET acceptor (e.g., anti-6His -XL665 from Cisbio, France). A suitable amount of the protein construct will depend on the range of activity or range of IC50 values being detected or under investigation. For detecting IC50 within a range of 500 nM, the protein constructs of the same range of molarity can be utilized.
A fixed volume of DMSO with or without test compound is transferred into a 384-well plate. Ras working solution is added to all wells of the test plate. SOS1 working solution is added to all wells except for those that are subsequently filled the inhibitor control solution. Upon incubation for about 10 minutes or longer, the fluorescence is measured with a M1000Pro plate reader (Tecan) using HTRF detection (excitation 337 nm, emission 1: 620 nm, emission 2: 665 nm). Compounds are tested in duplicates at different concentrations (for example, 10 μM, 2.5 μM, 0.63 μM, 0.16 μM, 0.04 μM, 0.01 μM test compound). The ratiometric data (i.e., emission 2 divided by emission 1) is used to calculate IC50 values against Ras using GraphPad Prism (GraphPad software). Following this general procedure, samples were tested with or without a subject compound disclosed herein including compounds exemplified in Table 3 to assess their abilities to inhibit K-Ras G12S relative to another mutant (e.g., K-Ras G12D). Signaling output measured in terms of IC50 values can be obtained, a ratio of IC50 against one mutant relative to another mutant can be calculated. For instance, a selective reduction of K-Ras G12S signaling output can be evidenced by a ratio greater than one. In particular, a selective reduction of K-Ras G12S signaling relative to K-Ras G12D signaling is evidenced as the ratio of IC50 (against K-Ras G12D) to IC50 (against K-Ras G12S) is greater than 1.
A general note: TR-FRET usually uses a lanthanide donor and a delayed reading to cut background.

Data set [7] has as its target T3, KRAS G12S 1-169 (His-tagged, GDP-loaded) (Homo sapiens, UniProt P01116, G12S).
T3 construct: His -tagged GDP-loaded G12S 1-169; made in house; host or cells: E. coli, e.g. BL21 (DE3)
Briefly: Covalent modification of KRAS protein by intact-protein LC-MS. Conditions: KRAS G12S, 24 hr. Type of data set: binding. Summed up:
as §2

For the compound `C#Cc1c(F)ccc2cc(O)cc(-c3ncc4c(N5CC6CCC(C5)N6C(=O)n5ccc(C#N)n5)nc(OC[C@@]56CCCN5C[C@H](F)C6)nc4c3F)c12` [Compound A216, 1-(3-(7-(8-ethynyl-7-fluoro-3-hydroxynaphthalen-1-yl)-8-fluoro-2-(((2R,7aS)-2-fluoro-tetrahydro-1H-pyrrolizin-7a(5H)-yl)methoxy)pyrido[4,3-d]pyrimidin-4-yl)-3,8-diaza-bicyclo[3.2.1]octane-8-carbon-yl)-1H-pyrazole-3-carbonitrile], the figures for the IC50 in data set [1] and in data set [3] were not above 1000 nM and not above 500 nM, respectively. Besides, in data set [2], the half-life at 0.5 μM was more than 10 min.

Turning to `N#Cc1c(N)sc2c(F)ccc(-c3c(Cl)cc4c(N5CCCCC6(CN(C(=O)n7cncn7)C6)C5)nc(OC[C@@]56CCCN5C[C@H](F)C6)nc4c3F)c12` [Compound A295, 4-(4-(2-(1H-1,2,4-triazole-1-carbonyl)-2,6-diazaspiro[3.6]-decan-6-yl)-6-chloro-8-fluoro-2-(((2R,7aS)-2-fluorotetra-hydro-1H-pyrrolizin-7a(5H)-yl)methoxy)quinazolin-7-yl)-2-amino-7-fluorobenzo[b]thio-phene-3-carbonitrile], in data set [4], the “covalent labeling of K-Ras G12D” value is reported as “essentially no detectable labeling”. Also, the “Compound IC50 Ratio IC50 (Cpd A):IC50 (Cpd B)” value in data set [5] was >4 (LS123 cells).

As to `Cc1cn(C(=O)N2C3CCC2CN(c2nc(OC[C@@]45CCCN4C[C@H](F)C5)nc4c(F)c(-c5ccc(F)c6sc(N)c(C#N)c56)c(Cl)cc24)C3)nn1` [Compound A189, 2-amino-4-(6-chloro-8-fluoro-2-(((2R,7aS)-2-fluorotetrahydro-1H-pyrrolizin-7a(5H)-yl)meth-oxy)-4-(8-(4-methyl-1H-1,2,3-triazole-1-carbonyl)-3,8-diaza-bicyclo[3.2.1]octan-3-yl)quin-azolin-7-yl)-7-fluorobenzo[b]-thiophene-3-carbonitrile], the IC50 is not above 1000 nM in data set [1] and not above 500 nM in data set [3].

`N#Cc1cn(C(=O)N2CC3(CCN(c4nc(OC[C@@]56CCCN5C[C@H](F)C6)nc5c(F)c(-c6ccc(F)c7sc(N)nc67)c(Cl)cc45)CC3)C2)cn1` [Compound A179, 1-(7-(7-(2-amino-7-fluorobenzo-[d]thiazol-4-yl)-6-chloro-8-fluoro-2-(((2R,7aS)-2-fluoro-tetrahydro-1H-pyrrolizin-7a(5H)-yl)methoxy)quinazolin-4-yl)-2,7-diazaspiro[3.5]nonane-2-carbonyl)-1H-imidazole-4-carbonitrile]: in data set [1], the IC50 was 1000 to 10000 nM. Further, in data set [6], the “Ratio of IC50 KRAS G12D vs. IC50 KRAS G12S” value is reported as “A (A: indicates that the ratio of IC50 against KrasG12D vs. IC50 against KrasG12S is 1-fold or greater)”.

Regarding `N#Cc1c(N)sc2c(F)ccc(-c3c(Cl)cc4c(N5CC(F)(F)C6(CN(C(=O)n7cncn7)C6)C5)nc(OC[C@@]56CCCN5C[C@H](F)C6)nc4c3F)c12` [Compound A199, 2-amino-4-(6-chloro-4-(8,8-difluoro-2-(1H-1,2,4-triazole-1-carbonyl)-2,6-diazaspiro[3.4]-octan-6-yl)-8-fluoro-2-(((2R,7aS)-2-fluorotetrahydro-1H-pyrrolizin-7a(5H)-yl)meth-oxy)quinazolin-7-yl)-7-fluoro-benzo[b]thiophene-3-carbonitrile], in data set [7], the “% G12S Modification at 24 hr.” value is given as “+++ (+++ indicates greater than 20% labelling)”. Besides, the “covalent labeling of K-Ras G12D” value in data set [4] is on record as “essentially no detectable labeling”. The IC50 in data set [1] is 1000 to 10000 nM; in data set [3], not above 500 nM.

As to `C#Cc1c(F)ccc2cc(O)cc(-c3ccc4c(N5CCCC6(CN(C(=O)n7cncn7)C6)C5)nc(OC[C@@]56CCCN5C[C@H](F)C6)nc4c3F)c12` [Compound A210, (6-(7-(8-ethynyl-7-fluoro-3-hydroxynaphthalen-1-yl)-8-fluoro-2-(((2R,7aS)-2-fluoro-tetrahydro-1H-pyrrolizin-7a(5H)-yl)methoxy)quinazolin-4-yl)-2,6-diazaspiro[3.5]nonan-2-yl)(1H-1,2,4-triazol-1-yl)-methanone], in data set [5], the “Compound IC50 Ratio IC50 (Cpd A):IC50 (Cpd B)” value is >4 (LS123 cells).

By IC50 is commonly meant the concentration needed to halve the response being measured. What is called half-life is how long it takes for the measured level to halve. A high value points to slow loss.

The values are drawn from patent publication US20240368191A1, “HETEROCYCLIC COMPOUNDS AND USES THEREOF” (Kumquat Biosciences Inc., priority 2021, published 2024).
